According to patent US7572438B2, “Mutant having uracil phosphoribosyl transferase activity” (Transgene S.A., priority 1998, dated 2009):

Assays:
PANC-1 = assay: LD50 of 5-FC and 5-FU on adenovirus-infected PANC-1 cells (MOI 5); assay type: cell-based, human; settings: PANC-1, mock-infected, 6 days
Procedure: (§1) The LD50 values for 5-FC and 5-FU are determined vis-a-vis the three human tumor cell lines infected with the different viruses (Ad null, Ad.CMV-FCY1, Ad.CMV-FUR1A1Δ105 and Ad.CMV-FCU1) or coinfected with the adenoviruses expressing the FCY1 and FUR1Δ105 genes. The cells are infected at an MOI of 5 and then cultured in the presence of different concentrations of 5-FC and 5-FU. After 6 days of culture, the viability of the cells is determined using trypan blue. The LD50 values listed in Table 6 are the means of four counts.

SW480 = assay: LD50 of 5-FC and 5-FU on adenovirus-infected SW480 cells (MOI 5); assay type: cell-based, human; settings: 6 days
Procedure: as §1

B16(F0) cells [1] = assay: Sensitivity of transfected B16(F0) clones to 5-FC and 5-FU (LD50, trypan blue); assay type: cell-based, mouse; settings: 6 days with drug
Procedure: The sensitivities of the different clones to 5-FC and 5-FU are also tested after incubating in the presence of the drugs for 6 days. The following values are the means of four counts (using trypan blue) of cell mortality.

B16(F0) cells [2] = assay: Bystander effect: mixtures of untransfected and pCI-neoFCU1-transfected B16(F0) clones with 5-FC; assay type: cell-based, mouse; settings: B16/B16 pCI-neoFCU1 100%/0%, 4 days
Procedure: These clone mixtures were then tested in the presence of different concentrations of 5-FC. Cell mortality (using trypan blue) is assessed after culturing for 4 days in the presence of 5-FC.

SK-BR-3 = assay: LD50 of 5-FC and 5-FU on adenovirus-infected SK-BR-3 cells (MOI 5); assay type: cell-based, human; settings: SK-BR-3, mock-infected, 6 days
Procedure: as §1

Question: How did the “LD50 (μM) 5-FC, Mock” value (PANC-1) turn out when `Nc1nc(=O)[nH]cc1F` [5-FC, 5-fluorocytosine] was run?
Answer: 10,000 μM

Question: What about the “LD50 (μM) 5-FC, Mock” value (SW480) of the same compound?
Answer: 5000 µM

Question: What about the “LD50 for 5-FC, untransfected cells” value (B16(F0) cells [1]) of the same compound?
Answer: 1000 µM

Question: What about the “LD50 (μM) + 5-FC” value (B16(F0) cells [2]) of the same compound?
Answer: 5000 µM

Question: What about the “LD50 (μM) 5-FC, Mock” value (SK-BR-3) of the same compound?
Answer: 5000 µM

Question: For `O=c1[nH]cc(F)c(=O)[nH]1` [5-FU, 5-fluorouracil], which “LD50 (μM) 5-FU, Mock” value (PANC-1) is on record?
Answer: 0.3 µM

Question: What about the “LD50 (μM) 5-FU, Mock” value (SW480) of the same compound?
Answer: 0.5 µM

Question: What about the “LD50 (μM) 5-FU, Mock” value (SK-BR-3) of the same compound?
Answer: 0.1 µM
